# Laboratory results from patent US20170065500A1, “Activation of Hydrogen Peroxide” (Revlon Consumer Products Corporation, priority 2015, published 2017).
# Tests used:
# [1] = system: C. xerosis; test: Bacterial colonies on agar petri dish treated with hydrogen peroxide alone and with UV light; format: cell-based; conditions: + 265 nm UV light, 15 minutes
# Method: (§1) The bacterial (organism) was plated on a standard agar petri dish and allowed to grow. The colonies were treated with hydrogen peroxide alone and with UV light for 15 minutes. The light growth means light growth is visable but not as fully developed colonies. Heavy growth was fully developed colonies to numerous to count.
# [2] = system: S. epidermidis; test: as above; format: cell-based; conditions: + 265 nm UV light, 15 minutes
# Method: as §1
compound,measurement,setting,value
OO [Hydrogen peroxide],bacterial growth after treatment,[1],No
same,bacterial growth after treatment,[2],Very
